According to publication PMC8672713 (Chemical Science, 2021):

Biological target: SARS-CoV-2 Mpro (Severe acute respiratory syndrome coronavirus 2, UniProt P0DTD1)
Assay type: biochemical

O=C(NC[C@H](NC(=O)c1cncc2sccc12)c1ccc2ccccc2c1)c1cocn1 [Z4921678803]
IC50: 12.1 µM

O=C(NC[C@@H]1CC2(CCC2)CN1C(=O)c1ccc(F)c(O)c1)c1cncc2ccccc12 [Z4927220858]
IC50: 11.2 µM

Cc1cncc(C(=O)NC[C@H]2c3ccccc3CCN2C(=O)c2cccn3nnnc23)c1 [Z4921675438]
IC50: 10.8 µM
